In patent US12344600B2, “c-Myc mRNA translation modulators and uses thereof in the treatment of cancer” (Anima Biotech Inc., priority 2022, dated 2025):

system: c-Myc; assay: c-Myc immunofluorescence assay; format: cell-based, human; conditions: A549 cells, 24 hours, anti-c-Myc immunofluorescence
Method in brief: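 Read-out is imaged c-Myc immunofluorescence, nucleus-segmented, in A549 lung carcinoma cells exposed to compound dose series for 24 h after 48 h growth. Fixation 4% paraformaldehyde, Triton permeabilization, antibody staining at room temperature; EC50 from logistic fit of signal versus concentration.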

Row | SMILES | Myc Efficacy (−LogEC50)
1 | COc1ccc(-c2noc(N3CCC(C(=O)NC[C@H]4CCN(C)C4)CC3)n2)cc1 [Compound 253, (R)-1-(3-(4-methoxyphenyl)-1,2,4-oxadiazol-5-yl)-N-((1-methylpyrrolidin-3-yl)methyl)piperidine-4-carboxamide] | + (+ >3 and <5)
2 | COc1ccc(-c2noc(N3CCC(C(=O)NC4CCOCC4)CC3)n2)cc1 [Compound 254, 1-(3-(4-methoxyphenyl)-1,2,4-oxadiazol-5-yl)-N-(tetrahydro-2H-pyran-4-yl)piperidine-4-carboxamide] | + (+ >3 and <5)
3 | COc1ccc(-c2noc(N3CCC(C(=O)NCC4CCOC4)CC3)n2)cc1 (stereo not drawn) [Compound 255, 1-(3-(4-methoxyphenyl)-1,2,4-oxadiazol-5-yl)-N-((tetrahydrofuran-3-yl)methyl)piperidine-4-carboxamide] | + (+ >3 and <5)
4 | COc1ccc(-c2noc(N3CCC(C(=O)N[C@H]4C[C@@H](OC)C4)CC3)n2)cc1 [Compound 256, N-((1s,3s)-3-methoxycyclobutyl)-1-(3-(4-methoxyphenyl)-1,2,4-oxadiazol-5-yl)piperidine-4-carboxamide] | + (+ >3 and <5)
5 | COc1ccc(-c2noc(N3CCC(C(=O)NCc4ccccc4N4CCCC4)CC3)n2)cc1 [Compound 257, 1-(3-(4-methoxyphenyl)-1,2,4-oxadiazol-5-yl)-N-(2-(pyrrolidin-1-yl)benzyl)piperidine-4-carboxamide] | + (+ >3 and <5)
6 | COc1ccc(-c2noc(N3CCC(C(=O)NC4(C(O)c5ccccc5)CC4)CC3)n2)cc1 (stereo not drawn) [Compound 258, N-(1-(hydroxy(phenyl)methyl)cyclopropyl)-1-(3-(4-methoxyphenyl)-1,2,4-oxadiazol-5-yl)piperidine-4-carboxamide] | + (+ >3 and <5)
7 | COc1ccc(-c2noc(N3CCC(C(=O)N[C@H]4c5ccccc5C[C@H]4O)CC3)n2)cc1 [Compound 259, N-((1S,2R)-2-hydroxy-2,3-dihydro-1H-inden-1-yl)-1-(3-(4-methoxyphenyl)-1,2,4-oxadiazol-5-yl)piperidine-4-carboxamide] | + (+ >3 and <5)
8 | COc1ccc(-c2noc(N3CCC(C(=O)NCC(C)(O)c4ccccc4)CC3)n2)cc1 (stereo not drawn) [Compound 260, N-(2-hydroxy-2-phenylpropyl)-1-(3-(4-methoxyphenyl)-1,2,4-oxadiazol-5-yl)piperidine-4-carboxamide] | + (+ >3 and <5)
9 | COc1ccc(-c2noc(N3CCC(C(=O)NC4=NCCS4)CC3)n2)cc1 [Compound 261, N-(4,5-dihydrothiazol-2-yl)-1-(3-(4-methoxyphenyl)-1,2,4-oxadiazol-5-yl)piperidine-4-carboxamide] | + (+ >3 and <5)
10 | COc1ccc(-c2noc(N3CCC(C(=O)NC(CO)c4cccs4)CC3)n2)cc1 (stereo not drawn) [Compound 262, N-(2-hydroxy-1-(thiophen-2-yl)ethyl)-1-(3-(4-methoxyphenyl)-1,2,4-oxadiazol-5-yl)piperidine-4-carboxamide] | + (+ >3 and <5)
11 | COc1ccc(-c2noc(N3CCC(C(=O)NC(C)Cc4ccccn4)CC3)n2)cc1 (stereo not drawn) [Compound 263, 1-(3-(4-methoxyphenyl)-1,2,4-oxadiazol-5-yl)-N-(1-(pyridin-2-yl)propan-2-yl)piperidine-4-carboxamide] | − (− ≤3)
12 | COc1ccc(-c2noc(N3CCC(C(=O)NC4(c5ccccc5)CC4)CC3)n2)cc1 [Compound 264, 1-(3-(4-methoxyphenyl)-1,2,4-oxadiazol-5-yl)-N-(1-phenylcyclopropyl)piperidine-4-carboxamide] | + (+ >3 and <5)
13 | COc1ccc(-c2noc(N3CCC(C(=O)N[C@@H](CO)c4ccccc4)CC3)n2)cc1 [Compound 265, (R)-N-(2-hydroxy-1-phenylethyl)-1-(3-(4-methoxyphenyl)-1,2,4-oxadiazol-5-yl)piperidine-4-carboxamide] | + (+ >3 and <5)
14 | COc1ccc(-c2noc(N3CCC(C(=O)N[C@@H](C)c4ccccc4F)CC3)n2)cc1 [Compound 266, (S)-N-(1-(2-fluorophenyl)ethyl)-1-(3-(4-methoxyphenyl)-1,2,4-oxadiazol-5-yl)piperidine-4-carboxamide] | + (+ >3 and <5)
15 | Cc1ccc(CN2CC(CNC(=O)C3CCN(c4nc(-c5ccc(C#N)cc5)no4)CC3)CC2=O)cc1 (stereo not drawn) [Compound 267, 1-(3-(4-cyanophenyl)-1,2,4-oxadiazol-5-yl)-N-((1-(4-methylbenzyl)-5-oxopyrrolidin-3-yl)methyl)piperidine-4-carboxamide] | ++ (++ ≥5 and <6)
16 | Cc1ccc(CN2CC(CNC(=O)N3CCN(c4nc(-c5ccc(C#N)cc5)no4)CC3)CC2=O)cc1 (stereo not drawn) [Compound 268, 4-(3-(4-cyanophenyl)-1,2,4-oxadiazol-5-yl)-N-((1-(4-methylbenzyl)-5-oxopyrrolidin-3-yl)methyl)piperazine-1-carboxamide] | ++ (++ ≥5 and <6)
17 | COc1ccc(-c2noc(N3CCC(C(=O)NCCN4CCCC4(C)C)CC3)n2)cc1 [Compound 269, N-(2-(2,2-dimethylpyrrolidin-1-yl)ethyl)-1-(3-(4-methoxyphenyl)-1,2,4-oxadiazol-5-yl)piperidine-4-carboxamide] | + (+ >3 and <5)

Row | SMILES | Myc Efficacy (−LogEC50)
18 | COc1ccc(-c2noc(N3CCC(C(=O)NCC4(O)CCCCC4)CC3)n2)cc1 [Compound 270, N-((1-hydroxycyclohexyl)methyl)-1-(3-(4-methoxyphenyl)-1,2,4-oxadiazol-5-yl)piperidine-4-carboxamide] | + (+ >3 and <5)
19 | COc1ccc(-c2noc(N3CCC(C(=O)NC4CC5(C4)CN(C)C5)CC3)n2)cc1 [Compound 271, 1-(3-(4-methoxyphenyl)-1,2,4-oxadiazol-5-yl)-N-(2-methyl-2-azaspiro[3.3]heptan-6-yl)piperidine-4-carboxamide] | + (+ >3 and <5)
20 | COc1ccc(-c2noc(N3CCC(C(=O)NC[C@H]4CC(C)(C)O4)CC3)n2)cc1 [Compound 272, (R)-N-((4,4-dimethyloxetan-2-yl)methyl)-1-(3-(4-methoxyphenyl)-1,2,4-oxadiazol-5-yl)piperidine-4-carboxamide] | + (+ >3 and <5)
21 | COc1ccc(-c2noc(N3CCC(C(=O)NCC4(c5ccccc5)CCOCC4)CC3)n2)cc1 [Compound 273, 1-(3-(4-methoxyphenyl)-1,2,4-oxadiazol-5-yl)-N-((4-phenyltetrahydro-2H-pyran-4-yl)methyl)piperidine-4-carboxamide] | − (− ≤3)
22 | COc1ccc(-c2noc(N3CCC(C(=O)N[C@@H]4CC[C@H](O)C4)CC3)n2)cc1 [Compound 274, N-((1R,3S)-3-hydroxycyclopentyl)-1-(3-(4-methoxyphenyl)-1,2,4-oxadiazol-5-yl)piperidine-4-carboxamide] | + (+ >3 and <5)
23 | COc1ccc(-c2noc(N3CCC(C(=O)NC4CCC(F)(F)C4)CC3)n2)cc1 (stereo not drawn) [Compound 275, N-(3,3-difluorocyclopentyl)-1-(3-(4-methoxyphenyl)-1,2,4-oxadiazol-5-yl)piperidine-4-carboxamide] | + (+ >3 and <5)
24 | COc1ccc(-c2noc(N3CCC(C(=O)NC[C@H](C)OC)CC3)n2)cc1 [Compound 276, (S)-1-(3-(4-methoxyphenyl)-1,2,4-oxadiazol-5-yl)-N-(2-methoxypropyl)piperidine-4-carboxamide] | + (+ >3 and <5)
25 | COc1ccc(-c2noc(N3CCC(C(=O)NC4(Cc5ccccc5)COC4)CC3)n2)cc1 [Compound 277, N-(3-benzyloxetan-3-yl)-1-(3-(4-methoxyphenyl)-1,2,4-oxadiazol-5-yl)piperidine-4-carboxamide] | + (+ >3 and <5)
26 | COc1ccc(-c2noc(N3CCC(C(=O)NCC4CCc5ccccc5O4)CC3)n2)cc1 (stereo not drawn) [Compound 278, N-(chroman-2-ylmethyl)-1-(3-(4-methoxyphenyl)-1,2,4-oxadiazol-5-yl)piperidine-4-carboxamide] | + (+ >3 and <5)
27 | CC[C@H](C)NC(=O)C1CCN(c2nc(-c3ccc(OC)cc3)no2)CC1 [Compound 279, (S)-N-(sec-butyl)-1-(3-(4-methoxyphenyl)-1,2,4-oxadiazol-5-yl)piperidine-4-carboxamide] | + (+ >3 and <5)
28 | COc1ccc(-c2noc(N3CCC(C(=O)NC(c4ccccn4)C4CC4)CC3)n2)cc1 (stereo not drawn) [Compound 280, N-(cyclopropyl(pyridin-2-yl)methyl)-1-(3-(4-methoxyphenyl)-1,2,4-oxadiazol-5-yl)piperidine-4-carboxamide] | + (+ >3 and <5)
29 | COc1ccc(-c2noc(N3CCC(C(=O)NCc4ccc5c(c4)CCO5)CC3)n2)cc1 [Compound 281, N-((2,3-dihydrobenzofuran-5-yl)methyl)-1-(3-(4-methoxyphenyl)-1,2,4-oxadiazol-5-yl)piperidine-4-carboxamide] | + (+ >3 and <5)
30 | COc1ccc(-c2noc(N3CCC(C(=O)NCCOc4ccccc4)CC3)n2)cc1 [Compound 282, 1-(3-(4-methoxyphenyl)-1,2,4-oxadiazol-5-yl)-N-(2-phenoxyethyl)piperidine-4-carboxamide] | + (+ >3 and <5)
31 | COc1ccc(-c2noc(N3CCC(C(=O)NC4COc5ccccc54)CC3)n2)cc1 (stereo not drawn) [Compound 283, N-(2,3-dihydrobenzofuran-3-yl)-1-(3-(4-methoxyphenyl)-1,2,4-oxadiazol-5-yl)piperidine-4-carboxamide] | + (+ >3 and <5)
32 | COc1ccc(-c2noc(N3CCC(C(=O)NCc4ccccc4OC(F)F)CC3)n2)cc1 [Compound 284, N-(2-(difluoromethoxy)benzyl)-1-(3-(4-methoxyphenyl)-1,2,4-oxadiazol-5-yl)piperidine-4-carboxamide] | + (+ >3 and <5)
33 | COc1ccc(-c2noc(N3CCC(C(=O)NCc4cc5ccccc5[nH]4)CC3)n2)cc1 [Compound 285, N-((1H-indol-2-yl)methyl)-1-(3-(4-methoxyphenyl)-1,2,4-oxadiazol-5-yl)piperidine-4-carboxamide] | ++ (++ ≥5 and <6)
